Measured values published in the SangsterLogP compilation.

Experiments:
[1] = method code SF-GLC, from DOI: 10.1016/s0003-2670(00)84505-5
[2] = method code SF-AS, from DOI: 10.1016/s0021-9673(01)89384-5
[3] = method code SF-AS, from DOI: 10.1016/0041-008x(67)90079-8
[4] = method code SF-RC, from DOI: 10.1016/s0969-8051(01)00233-5, PMID: 11518650
[5] = method code SF-AS, from DOI: 10.1016/0731-7085(96)01773-6, PMID: 8877846
[6] = not given; remark: listed apart in the source
[7] = method code SF-HPLC, from DOI: 10.1016/0378-5173(84)90193-5; details: pH 4.0
[8] = method code SF-AS, from DOI: 10.1016/0378-5173(93)90388-v
[9] = method code SF-AS, from DOI: 10.1111/j.2042-7158.1989.tb06480.x, PMID: 2570831; details: pH 7.4
[10] = not given; remark: listed apart in the source
[11] = pH 7.3
[12] = not given; remark: listed apart in the source
[13] = method code SF-TN, from DOI: 10.2116/analsci.13.897; details: pH 2.0
[14] = not given; remark: listed apart in the source
[15] = method code SF-HPLC, from DOI: 10.1016/j.microc.2003.08.005
[16] = not given; remark: listed apart in the source
[17] = method code SF-GLC, from DOI: 10.1016/0166-445x(88)90052-5
[18] = not given; remark: listed apart in the source
[19] = not given; remark: listed apart in the source
[20] = method code SF-AS, from DOI: 10.1016/0378-5173(80)90061-7
[21] = not given; remark: listed apart in the source
[22] = method code SF-AS, from DOI: 10.1248/cpb.17.2558; details: pH 2.0
[23] = method code SF, from DOI: 10.1016/0006-2952(91)90449-f, PMID: 1930261; details: pH 2.0
[24] = from Wang, L.; Xu, L.; Xu, O.; Tian, L.; Zheng, Z. (1989). Simultaneous determination of partition coefficients and acid dissociation constants of some organic dibasic acids and diacidic bases in the …
[25] = method code SF-GLC, from DOI: 10.1002/etc.5620080910
[26] = not given; remark: listed apart in the source
[27] = method code SF, from DOI: 10.1016/s0928-0987(00)00099-3, PMID: 10915965; details: pH 5.0
[28] = method code SF-AS, from DOI: 10.1002/etc.5620181211
[29] = method code SF-AS, from DOI: 10.1016/j.bmc.2008.07.057, PMID: 18706818; details: pH 7.4
[30] = not given; remark: listed apart in the source
[31] = not given; remark: listed apart in the source

SMILES: Clc1ccncc1
- logP: 1.37

SMILES: Oc1c(Cl)cc(Cl)c(Cl)c1Cl
- logP [1]: 4.3

SMILES: Cc1ccc(C)o1
- logP [2]: 2.24

SMILES: COc1cc(Cl)c(Cl)c(Cl)c1O
- logP [1]: 3.72

SMILES: Clc1cc(Cl)c(Cl)nc1Cl
- logP [3]: 3.32

SMILES: CN(C)CCF
- logP [4]: 0.36

SMILES: O=C1O[C@H]([C@@H](O)CO)C(O)=C1O
- logP [5]: -1.84

SMILES: C1CCCC1
- logP [6]: 2.8

SMILES: CC(=O)n1c(=O)[nH]cc(F)c1=O
- logD [7]: -0.34

SMILES: CCN1CCCC1=O
- logP [8]: -0.04

SMILES: Cn1cnc2c(N)ncnc21
- logD [9]: -0.03

SMILES: c1ccc(Oc2ccccc2)cc1
- logP [10]: 3.87

SMILES: O=c1cc(CO)occ1O
- logD [11]: -0.64

SMILES: Cc1cc(O)no1
- logP [12]: 0.26

SMILES: O=C(O)C1CC=CCC1 (stereo not drawn)
- logD [13]: 1.69

SMILES: On1ccccc1=S
- logP [14]: 0.4

SMILES: Clc1ccc2[nH]nnc2c1
- logP [15]: 2.17

SMILES: Oc1cc(Cl)ccc1Cl
- logP [16]: 3.06

SMILES: CCCCC1CO1 (stereo not drawn)
- logP [17]: 1.95

SMILES: Oc1cccc(F)c1
- logP [16]: 1.82

SMILES: CCCCOC(C)=O
- logP [18]: 1.69

SMILES: CCCCC(C)=O
- logP [19]: 1.39

SMILES: Cc1cccc(C)n1
- logP [19]: 1.63

SMILES: O=C1CCCO1
- logP [20]: -0.31

SMILES: CCCC(=O)n1c(=O)[nH]cc(F)c1=O
- logD [7]: 0.67

SMILES: C1OC1C1CO1 (stereo not drawn)
- logP [17]: -0.28

SMILES: Nc1c([N+](=O)[O-])ccc2ncccc12
- logP [21]: 1.61

SMILES: O=Cc1ccncc1
- logP: 0.23

SMILES: NS(=O)(=O)c1ccc(Cl)c(Cl)c1
- logD [22]: 1.44

SMILES: CN1C(=O)C(=O)C(=O)N(C)C1=O
- logD [23]: -0.57

SMILES: Nc1cccc(C(=O)O)c1
- logP [24]: 0.65

SMILES: C#CCN(C)C(C)Cc1ccc(F)cc1 (stereo not drawn)
- logP [5]: 3

SMILES: O=[N+]([O-])c1cc(Cl)c(Cl)c(Cl)c1Cl
- logP [25]: 3.93

SMILES: O=[N+]([O-])c1c(Cl)cc(Cl)cc1Cl
- logP [25]: 3.69

SMILES: CCC(C)CC
- logP [26]: 2.8

SMILES: Cc1ccc2[nH]nnc2c1
- logP [15]: 1.89

SMILES: COP(=O)(OC)C(C)(OC(C)=O)P(=O)(OC)OC
- logD [27]: -1.05

SMILES: Nc1cccnc1Cl
- logP [28]: 0.04

SMILES: CCCCCCCCC(C)=O
- logP [6]: 3.78

SMILES: CC1(C(N)=O)CCC=[N+]1[O-] (stereo not drawn)
- logD [29]: -1.8

SMILES: CCCCCBr
- logP [30]: 3.32

SMILES: CCCC=CC(=O)O
- logD [13]: 1.69

SMILES: Oc1ccc(Cl)cc1
- logP [31]: 2.43
